Article PMC5500849, “Cobamide-mediated enzymatic reductive dehalogenation via long-range electron transfer” (Nature Communications, 2017)

How the values were obtained:
[1] = target: T1, PceA (PceA–Strep) (Sulfurospirillum multivorans, UniProt O68252); assay: crystal structure, soaked crystal; format: binding; settings: [Co(II)] state
T1 construct: C-terminal Strep-tag II, homologously produced in S. multivorans GD21 (genomic pceAB), Strep-Tactin purified; crystals from mature enzyme (Tat signal peptide removed); holo with norpseudo-B12 and two [4Fe-4S] clusters

[2] = target: T1, PceA (PceA–Strep); assay: inhibition of 4-BP dehalogenation; format: biochemical; settings: 47 nM enzyme, dark 2 min; covalent, alkylates cobamide [Co(I)], reversed by light

T1 sequence (O68252 38-501): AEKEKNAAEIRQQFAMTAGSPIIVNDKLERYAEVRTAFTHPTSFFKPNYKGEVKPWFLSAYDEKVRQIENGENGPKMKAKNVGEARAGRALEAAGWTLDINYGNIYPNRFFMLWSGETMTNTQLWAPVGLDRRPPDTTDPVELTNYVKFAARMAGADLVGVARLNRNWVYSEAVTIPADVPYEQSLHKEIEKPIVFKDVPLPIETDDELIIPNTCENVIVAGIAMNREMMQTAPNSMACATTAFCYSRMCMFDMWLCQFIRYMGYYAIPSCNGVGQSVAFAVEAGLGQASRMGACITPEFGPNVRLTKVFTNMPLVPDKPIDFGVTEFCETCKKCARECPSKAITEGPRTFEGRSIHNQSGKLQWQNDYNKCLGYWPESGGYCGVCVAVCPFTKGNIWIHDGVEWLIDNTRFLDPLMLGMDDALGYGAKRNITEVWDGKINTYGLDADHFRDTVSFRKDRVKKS

## Oc1ccc(Cl)cc1 [4-CP]
[1]; active site, not dehalogenated
  crystal structure, soaked crystal: 5M8W (4-CP)

## Oc1ccc(I)cc1 [4-IP]
[1]; active site, also surface groove site
  crystal structure, soaked crystal: 5MA2 (4-IP)

## Oc1cccc(Cl)c1 [3-CP]
[1]; active site, not dehalogenated
  crystal structure, soaked crystal: 5M8Y (3-CP)

## Oc1cccc(Br)c1 [3-BP]
[1]; enzyme with methoxybenzimidazolyl-norcobamide instead of norpseudo-B12
  crystal structure, soaked crystal: 5MAA (3-BP)

## CCCI [propyl iodide]
[2]
  complete inhibition at 100 μM: complete inhibition of the PceA-mediated 4-BP dehalogenation by propyl iodide in the dark
